Measurements published in patent US12133855B2, “Lipid-like nanocomplexes and uses thereof” (Trustees of Tufts College, priority 2018, dated 2024).

Assays:
HeLa cells [1] = experiment: Internalization of calcein loaded nanoparticles; type: cell-based; settings: 8 h of exposure
Method: The internalization kinetics and efficiencies of OCholB LNPs were then studied using NR loaded LNPs and HeLa cells. […] Next, all of the NR delivery efficiencies of eight OCholB LNPs were determined after 8 h of exposure. […] Representative fluorescent images of NR/LNPs (NR/75-OCholB, NR/76-OCholB and NR/77-OCholB) treated HeLa cells are shown in FIG. 12D, from which it is easily observed that NR was delivered into the cells and mainly distributed in cytoplasm, by OCholB LNPs. Next, the internalization of negatively charged hydrophilic fluorescent dye, calcein, was studied. […] Next, the use of OCholB LNPs for the intracellular delivery of macromolecular cargo was explored, using fluorescent recombinant (−30)GFP-Cre protein and HeLa-DsRed cells as the model system. […] Delivery efficiency was tested at a range of (−30)GFP-Cre protein concentrations (25, 50 and 100 nM), with a consistent lipid/protein ratio (i.e., delivery with the final lipid concentration of 1.7, 3.3, and 6.6 μg mL^−1 respectively). 33.2%, 43.8% and 74% of GFP positive (GFP^+) cells were recorded for (−30)GFP-Cre/Lpf2k treated cells with the concentration of (−30)GFP-Cre 25 nM, 50 nM and 100 nM, respectively. […]

Cy5-RNA = experiment: RNA binding test of lipidoid nanoparticles; type: physicochemical
Method: Lipidoids were fabricated into nanoparticles for all delivery applications. Briefly, lipidoids were mixed with sodium acetate buffer (25 mM, pH 5.2), sonicated for 30 min in an ultrasonic bath, followed by another 30 min of vigorous vortexing. The as-prepared blank LNPs were stored at 4° C. For Cy5-RNA/LNP, mRNA/LNP and protein/LNP complexation, blank lipidoid nanoparticles were mixed with RNA molecules or (−30)GFP-Cre protein in PBS buffer (pH 7.4) following our previously reported procedures and incubated at room temperature for another 30 min before use. Typical procedures for Nile red encapsulation are as follows: 5 μL of Nile red stock solution in acetone was added into an empty vial, which was then placed in a vacuum oven to completely remove the organic solvent. Then, a predetermined amount of blank LNP stock solution (1.0 mg/mL) was added into the vial. The mixture was sonicated for 40 min in an ultrasonic bath and stirred overnight at room temperature. The final concentration of Nile red was adjusted to 6.6×10-7 mol L-1 and 6×10-7 mol L-1 for thiol triggered release study and cell incubation, respectively, by diluting with PBS as necessary. Typical procedures for CPT and DiO/DiI FRET pair encapsulation are as follows: 100 μL of DiO/DiI stock solution in MeOH was charged into an empty vial and placed in a vacuum oven to remove the organic solvent. Lipidoids (2.0 mg) in 200 μL of methanol were then added into the vial and stirred to produce a homogeneous solution. Then, 600 μL of DI water was added dropwise in 10 min with continuous stirring. The resulting mixture was dialyzed against DI water for 24 h (Thermo Scientific Slide-A-Lyzer Dialysis Cassette, MWCO=3500 Da), and fresh water was replaced every 4 h. Typical procedures for encapsulation of calcein and doxonorubicin hydrochloride are as follows: precalculated amounts of calcein or Dox stock solutions in DI water was diluted into 800 μL with sodium acetate buffer, and used as the selective solvents to trigger the self-assembly process of lipidoids in methanol (5 mg/mL), respectively. […]

HeLa cells [2] = experiment: Cytotoxicity of anticancer drug loaded nanoparticles (MTT); settings: Dox series; 8 h of exposure, MTT after 48 h of incubation
Method: After 24 h of incubation at 37° C., 5% CO2, Dox, CPT or Oxa loaded nanoparticles were added to the cells and incubated for 8 h followed by media change. The cells were then incubated for another 40 h before cell viability analysis.
Cell viabilities of HeLa and HeLa-DsRed were measured using the standard MTT assay. In a 96-well plate, after incubating HeLa or HeLa-DsRed cells with blank or cargo-loaded nanoparticles, the MTT reagent (5 mg/mL, in 30 μL PBS buffer) was added and the cells were incubated for another 4 h at 37° C. The cell culture media was then carefully removed and 200 μL of DMSO was added to each well. The DMSO solution was then transferred into a clean 96-well plate and the absorbance at 570 nm was recorded by a microplate reader. All experiments were performed in quadruplicate.
Dose-dependent cytotoxicity was then examined.

Ai14 mice = experiment: In vivo genome editing, intramuscular injection, tdTomato expression; design: species or system mouse; settings: single IM dose, day 10
Method: Similar to the in vitro transfection study, lipidoid nanoparticles were prepared for mRNA or protein loading and in vivo delivery. Ai14 mice were housed in a temperature and humidity controlled facility with a 12 h light/dark cycle. Three mice in each group were injected (intravenously or intramuscularly) with Cre mRNA-loaded or (−30)GFP-Cre protein-loaded LNPs formulations. Organs including heart, liver, spleen, lung and kidney from all groups were collected at day 10 (intramuscular injection) or 14 (intravenous injection) after injection. The tissues were fixed overnight in 4% paraformaldehyde (PFA) and dehydrated in 30% sucrose before being froze in OCT and sectioned into 10-15 μm slices. The slices were then collected and stained with DAPI for fluorescence imaging (BZ-X Analyzer fluorescence microscopy).
Cre-loxP system and transgenic Ai14 mouse model were used in the in vivo genome editing study. […] When the Cre recombinase mediated gene reorganization occurs, the STOP cassette could be removed, resulting in the expression of fluorescent tdTomato reporter protein.
Local delivery through intramuscular injection (IM injection; rear leg) using (−30)GFP-Cre protein and Cre mRNA loaded 76-OCholB LNPs (FIG. 17B). Ai14 mice (n=3) received single dose of (−30)GFP-Cre/LNPs (50 μg of protein) or mRMA/LNPs (10 μg of mRNA) injection at day 1 and were sacrificed at day 10. […]

[3] = 10/1 weight ratio, DTT (10 mM, 24 h) treated nanoparticles

SMILES | mean fluorescent intensity vs free calcein-treated cells (HeLa cells [1]) | RNA molecules complexed with LNPs (Cy5-RNA; 10/1 weight ratio lipidoid/Cy5-RNA) | RNA binding efficacy (Cy5-RNA; [3]) | unbound Cy5-RNA (Cy5-RNA; [3]) | cell viability / dose-dependent cytotoxicity (HeLa cells [2]) | tdTomato fluorescent signals in skeletal muscle (Ai14 mice; (−30)GFP-Cre protein loaded, 50 μg protein) | tdTomato fluorescent signals in skeletal muscle (Ai14 mice; Cre mRNA loaded, 10 μg mRNA)
CCN(CC)CCN(CCC(=O)OCCSSCCNC(=O)OC1CCC2(C)C(=CCC3C2CCC2(C)C(C(C)CCCC(C)C)CCC32)C1)CCC(=O)OCCSSCCNC(=O)OC1CCC2(C)C(=CCC3C2CCC2(C)C(C(C)CCCC(C)C)CCC32)C1 (stereo not shown) [Lipidoid 75-OCholB] | ~9.4 folds | 82.9% | 15.5% | 84.5% | > 80% |  | 
CC(C)CCCC(C)C1CCC2C3CC=C4CC(OC(=O)NCCSSCCOC(=O)CCN(CCC(=O)OCCSSCCNC(=O)OC5CCC6(C)C(=CCC7C6CCC6(C)C(C(C)CCCC(C)C)CCC76)C5)CCN5CCCC5)CCC4(C)C3CCC12C (stereo not shown) [Lipidoid 76-OCholB] |  |  |  |  |  | strong tdTomato fluorescent signals | strong tdTomato fluorescent signals
